Laboratory results: the supplement of paper PMC10307832

Tests used:
Assay in all cases: relative viability (nuclei count vs DMSO), 5 days (fraction); higher = more cells survive
[1] = compound: C1=CC=C(C(=C1)C2=CC=C(C=C2)C3=CSC4=C3C(=C(C(=O)N4)C#N)O)O + CC(=O)Nc1cccc(-n2c(=O)n(C3CC3)c(=O)c3c(Nc4ccc(I)cc4F)n(C)c(=O)c(C)c32)c1 [Trametinib] (partner 0.02 µM)
Outline: (§1)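 Cells from lung cancer lines were seeded into 1536-well plates and, one day later, dosed by pin tool. Treatments were either a single drug or a fixed dose of an anchor drug with five library-drug doses (not always all listed) in √10 steps. After 5 days, nuclei were stained in a one-step fixation (final 0.05% Triton X-100, 1% formaldehyde, 1 ug/ml Hoechst) and counted on 4× images, and relative viability is the treated-to-vehicle nuclei ratio, as the median of duplicate plates.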

[2] = compound: C1=CC=C(C(=C1)C2=CC=C(C=C2)C3=CSC4=C3C(=C(C(=O)N4)C#N)O)O + Nc1nc2[nH]cc(CCc3ccc(C(=O)N[C@@H](CCC(=O)O)C(=O)O)cc3)c2c(=O)[nH]1 [Pemetrexed] (partner 0.2 µM)
Outline: as §1

TGX 221 + Luminespib = compound: CC1=CN2C(=O)C=C(N=C2C(=C1)C(C)NC3=CC=CC=C3)N4CCOCC4 [TGX 221] + CCNC(=O)c1noc(-c2cc(C(C)C)c(O)cc2O)c1-c1ccc(CN2CCOCC2)cc1 [Luminespib] (partner 0.01 µM)
Outline: as §1

TGX 221 + AZD7762 = compound: CC1=CN2C(=O)C=C(N=C2C(=C1)C(C)NC3=CC=CC=C3)N4CCOCC4 [TGX 221] + NC(=O)Nc1cc(-c2cccc(F)c2)sc1C(=O)N[C@H]1CCCNC1 [AZD7762] (partner 0.2 µM)
Outline: as §1

Cell Line	relative viability ([1]; first compound 0.08 µM)	relative viability ([1]; first compound 0.253 µM)	relative viability ([1]; first compound 0.8 µM)	relative viability ([1]; first compound 2.53 µM)	relative viability ([1]; first compound 8 µM)	relative viability ([2]; first compound 0.08 µM)	relative viability ([2]; first compound 0.253 µM)	relative viability ([2]; first compound 0.8 µM)	relative viability ([2]; first compound 2.53 µM)	relative viability ([2]; first compound 8 µM)	relative viability (TGX 221 + Luminespib; first compound 0.08 µM)	relative viability (TGX 221 + Luminespib; first compound 0.253 µM)	relative viability (TGX 221 + Luminespib; first compound 0.8 µM)	relative viability (TGX 221 + Luminespib; first compound 2.53 µM)	relative viability (TGX 221 + Luminespib; first compound 8 µM)	relative viability (TGX 221 + AZD7762; first compound 0.08 µM)	relative viability (TGX 221 + AZD7762; first compound 0.253 µM)	relative viability (TGX 221 + AZD7762; first compound 0.8 µM)	relative viability (TGX 221 + AZD7762; first compound 2.53 µM)	relative viability (TGX 221 + AZD7762; first compound 8 µM)
NCI-H1666	0.819	1.13	0.935	0.861	0.803	0.796	0.833	0.894	0.865	0.761	1.08	0.977	1.03	1.02	0.975	0.784	0.861	0.923	0.8	0.802
NCI-H522	1	0.784	0.827	0.687	0.718	0.965	1.02	1.04	0.911	0.878	1.09	1.04	1.01	1.11	1.42	0.771	0.81	0.888	0.871	0.904
RERF-LC-KJ	0.988	0.908	0.917	0.878	0.834	0.468	0.521	0.485	0.441	0.552	1.13	1.13	1.26	1.21	1.02	0.909	0.926	0.965	0.863	0.949
ChaGo-K-1	0.94	0.905	0.935	1.01	0.857	0.271	0.257	0.256	0.251	0.256	0.584	0.617	0.574	0.559	0.505	0.922	0.826	0.873	0.827	0.838
